Patent US10030020B2, “Spirocycle compounds and methods of making and using same” (Abide Therapeutics, Inc., priority 2016, dated 2018)

Key:
Assay type in all cases: biochemical
MAGL = MAGL (Mus musculus (Mouse), UniProt O35678); test: In vitro competitive activity-based protein profiling (mouse brain membrane fraction or cell lysates), MAGL band; conditions: mouse proteome; for inhibition at 1 µM: read-out: MAGL % Inh 1 μM (mouse); for IC50: competitive ABPP
Description: (§1) In Vitro Competitive Activity-Based Protein Profiling.
(§2) Proteomes (mouse brain membrane fraction or cell lysates) (50 μL, 1.0 mg/mL total protein concentration) were preincubated with varying concentrations of inhibitors at 37° C. After 30 min, FP—Rh (1.0 μL, 50 μM in DMSO) was added and the mixture was incubated for another 30 min at 37° C. Reactions were quenched with SDS loading buffer (50 μL-4×) and run on SDS-PAGE.

ABHD6 = ABHD6 (Mus musculus (Mouse), UniProt Q8R2Y0); test: In vitro competitive activity-based protein profiling (mouse brain membrane fraction or cell lysates), ABHD6 band; conditions: mouse proteome; for inhibition at 1 µM: read-out: ABHD6 % Inh 1 μM (mouse); for IC50: competitive ABPP
Chain of ABHD6 (Q8R2Y0 whole entry): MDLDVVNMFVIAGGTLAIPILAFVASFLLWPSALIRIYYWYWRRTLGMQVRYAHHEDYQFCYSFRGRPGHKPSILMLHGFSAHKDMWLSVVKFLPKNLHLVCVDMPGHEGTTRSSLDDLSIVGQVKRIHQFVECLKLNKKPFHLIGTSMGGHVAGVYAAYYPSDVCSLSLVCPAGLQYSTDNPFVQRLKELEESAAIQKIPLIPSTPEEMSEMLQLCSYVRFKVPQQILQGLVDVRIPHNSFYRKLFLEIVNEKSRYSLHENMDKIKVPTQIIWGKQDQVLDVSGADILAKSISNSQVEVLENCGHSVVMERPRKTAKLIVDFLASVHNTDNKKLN
Description: as §1
as §2, with “SDS-PAGE. Following gel imaging, serine hydrolase activity was determined by measuring fluorescent intensity of gel bands corresponding to MAGL, ABHD6 and FAAH using ImageJ 1.43u software.” for “SDS-PAGE.”

FAAH = FAAH (Mus musculus (Mouse), UniProt O08914); test: In vitro competitive activity-based protein profiling (mouse brain membrane fraction or cell lysates), FAAH band; conditions: mouse proteome; for inhibition at 1 µM: read-out: FAAH % Inh 1 μM (mouse); for IC50: competitive ABPP
Chain of FAAH (O08914 whole entry): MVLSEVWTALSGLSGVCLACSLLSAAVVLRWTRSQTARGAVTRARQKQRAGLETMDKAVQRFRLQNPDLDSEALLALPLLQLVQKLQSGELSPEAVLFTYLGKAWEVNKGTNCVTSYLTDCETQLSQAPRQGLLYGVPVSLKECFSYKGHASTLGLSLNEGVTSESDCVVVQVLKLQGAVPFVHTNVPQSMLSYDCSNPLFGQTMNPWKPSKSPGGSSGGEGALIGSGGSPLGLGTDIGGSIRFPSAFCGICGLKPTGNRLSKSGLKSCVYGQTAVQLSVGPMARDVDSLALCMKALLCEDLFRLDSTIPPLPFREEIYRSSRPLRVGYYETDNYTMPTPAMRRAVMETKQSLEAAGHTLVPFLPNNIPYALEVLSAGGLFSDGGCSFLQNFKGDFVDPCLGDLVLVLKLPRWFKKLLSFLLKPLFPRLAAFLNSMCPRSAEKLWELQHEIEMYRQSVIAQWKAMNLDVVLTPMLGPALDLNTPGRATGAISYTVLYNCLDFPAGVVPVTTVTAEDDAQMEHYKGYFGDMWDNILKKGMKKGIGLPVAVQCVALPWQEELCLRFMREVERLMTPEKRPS
Description: as §1
as §2, with “SDS-PAGE. Following gel imaging, serine hydrolase activity was determined by measuring fluorescent intensity of gel bands corresponding to MAGL, ABHD6 and FAAH using ImageJ 1.43u software.” for “SDS-PAGE.”

Chain of MAGL (O35678 whole entry): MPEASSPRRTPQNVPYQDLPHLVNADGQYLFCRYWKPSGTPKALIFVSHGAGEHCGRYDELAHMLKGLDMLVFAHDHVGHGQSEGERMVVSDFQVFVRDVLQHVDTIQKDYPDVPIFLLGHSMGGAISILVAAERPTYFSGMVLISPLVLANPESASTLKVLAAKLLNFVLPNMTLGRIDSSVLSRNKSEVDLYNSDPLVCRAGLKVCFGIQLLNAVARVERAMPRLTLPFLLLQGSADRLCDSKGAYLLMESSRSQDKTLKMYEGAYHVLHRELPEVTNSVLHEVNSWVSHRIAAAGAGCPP

SMILES | inhibition at 1 µM (MAGL) | IC50 (MAGL) | inhibition at 1 µM (ABHD6) | IC50 (ABHD6) | inhibition at 1 µM (FAAH) | IC50 (FAAH)
O=C(OC(C(F)(F)F)C(F)(F)F)N1CCC2(CCN(Cc3cccc(N4CCCC4)c3)C2)CC1 [Example 58, 1,1,1,3,3,3-Hexafluoropropan-2-yl 2-(3-(pyrrolidin-1-yl)benzyl)-2,8-diazaspiro[4.5]decane-8-carboxylate] | > 75% | 100 to 1000 nM | ≥ 75% | 100 to 1000 nM | < 25% | > 1000 nM
O=C(OC(C(F)(F)F)C(F)(F)F)N1CCC2(CCN(Cc3ccc4c(c3)OCCO4)C2)CC1 [Example 137, 1,1,1,3,3,3-Hexafluoropropan-2-yl 2-((2,3-dihydrobenzo[b][1,4]dioxin-6-yl)methyl)-2,8-diazaspiro[4.5]decane-8-carboxylate] | > 75% | 100 to 1000 nM | ≥ 75% | < 100 nM | < 25% | > 1000 nM
O=C(OC(C(F)(F)F)C(F)(F)F)N1CCC2(CCCN2Cc2cccc(OCCN3CCCC3)c2)CC1 [Example 12, 1,1,1,3,3,3-Hexafluoropropan-2-yl 1-(3-(2-(pyrrolidin-1-yl)ethoxy)benzyl)-1,8-diazaspiro[4.5]decane-8-carboxylate] | > 75% | 100 to 1000 nM | < 25% | > 1000 nM | < 25% | > 1000 nM
COc1cc(Cl)ccc1CN1CC2(CCN(C(=O)OC(C(F)(F)F)C(F)(F)F)CC2)CC1(C)C [Example 49, 1,1,1,3,3,3-Hexafluoropropan-2-yl 2-(4-chloro-2-methoxybenzyl)-3,3-dimethyl-2,8-diazaspiro[4.5]decane-8-carboxylate] | > 75% |  | < 25% | > 1000 nM | < 25% | > 1000 nM
O=C(OC(C(F)(F)F)C(F)(F)F)N1CCC2(CCCN2Cc2ccccc2)CC1 [Example 63, 1,1,1,3,3,3-Hexafluoropropan-2-yl 1-benzyl-1,8-diazaspiro[4.5]decane-8-carboxylate] | > 75% |  | < 25% | > 1000 nM | < 25% | > 1000 nM

More lines, now with the values ahead:

inhibition at 1 µM (MAGL) | IC50 (MAGL) | inhibition at 1 µM (ABHD6) | IC50 (ABHD6) | inhibition at 1 µM (FAAH) | IC50 (FAAH) | SMILES
> 75% | < 100 nM | ≥ 75% | < 100 nM | < 25% | > 1000 nM | CS(=O)(=O)N1CCc2cccc(CN3CCC4(CCN(C(=O)OC(C(F)(F)F)C(F)(F)F)CC4)C3)c2C1 [Example 161, 1,1,1,3,3,3-hexafluoropropan-2-yl 2-((2-(methylsulfonyl)-1,2,3,4-tetrahydroisoquinolin-8-yl)methyl)-2,8-diazaspiro[4.5]decane-8-carboxylate]
> 75% |  | < 25% |  | < 25% |  | O=C(O)[C@@H]1CCCN(c2cc(CN3CCCC34CCN(C(=O)OC(C(F)(F)F)C(F)(F)F)CC4)cc(C(F)(F)F)c2)C1 [Example 212]
> 75% | < 100 nM | ≥ 75% | 100 to 1000 nM | < 25% | > 1000 nM | O=C(OC(C(F)(F)F)C(F)(F)F)N1CCC2(CCN(Cc3ccc(Cl)c(N4CCCC4)c3)C2)CC1 [Example 155, 1,1,1,3,3,3-Hexafluoropropan-2-yl 2-(4-chloro-3-(pyrrolidin-1-yl)benzyl)-2,8-diazaspiro[4.5]decane-8-carboxylate]
> 75% | 100 to 1000 nM | < 25% | > 1000 nM | < 25% | > 1000 nM | CC(C)N1CCc2cccc(CN3CCCC34CCN(C(=O)OC(C(F)(F)F)C(F)(F)F)CC4)c2C1 [Example 147, 1,1,1,3,3,3-Hexafluoropropan-2-yl 1-((2-isopropyl-1,2,3,4-tetrahydroisoquinolin-8-yl)methyl)-1,8-diazaspiro[4.5]decane-8-carboxylate]
